Earlier results, collected in US11992546B2, “Process of coloring keratinous material comprising the use of an organosilicon compound, an effect pigment, and a sealing reagent vi” (Henkel AG & Co. KGaA, priority 2019, dated 2024).
Read-outs that look alike come from different tables or passages of the source.

Row | SMILES | solubility in water (25° C.) | solubility in water (at 25° C.)
1 | O=S(=O)([O-])c1ccc(N=Nc2c(O)ccc3ccccc23)cc1.[Na+] [Acid Orange 7, sodium salt of 4-[(2-hydroxy-1-naphthyl)azo]benzene sulphonate] | more than 7 g/L | 
2 | Nc1cc(S(=O)(=O)[O-])cc2cc(S(=O)(=O)[O-])c(N=Nc3ccccc3)c(O)c12.[Na+].[Na+] [Acid Red 33, disodium salt of 5-amino-4-hydroxy-3-(phenylazo)-naphthalene-2,7-disulphonate] | 2500 µg/mL | 
3 | O=C([O-])c1c(Cl)c(Cl)c(Cl)c(Cl)c1-c1c2c(Br)cc(=O)c(Br)c-2oc2c(Br)c(O)cc(Br)c12.O=C([O-])c1c(Cl)c(Cl)c(Cl)c(Cl)c1-c1c2c(Br)cc(=O)c(Br)c-2oc2c(Br)c(O)cc(Br)c12.[Na+].[Na+] [Acid Red 92, disodium salt of 3,4,5,6-tetrachloro-2-(1,4,5,8-tetrabromo-6-hydroxy-3-oxoxanthen-9-yl)benzoic acid] | greater than 10 g/L | 
4 | O=C([O-])C1=NN(c2ccc(S(=O)(=O)[O-])cc2)C(=O)C1N=Nc1ccc(S(=O)(=O)[O-])cc1.[Na+].[Na+].[Na+] (stereo not shown) [Acid Yellow 23, trisodium salt of 4,5-dihydro-5-oxo-1-(4-sulfophenyl)-4-((4-sulfophenyl)azo)-1H-pyrazole-3-carboxylic acid] |  | highly soluble
